Test results as given in ChEMBL document CHEMBL1201862, “PubChem BioAssay data set” (2004).
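Test compounds were applied to cells in 96-well plates for 48 hours at 5 doses. GI50 marks 50% less growth.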 The source made the active and inactive calls. Cut-off read from the data, not from the text of the source: active = GI50 up to about 1.1 µM and inactive = higher.

Key:
Test in all cases: growth of human tumour cells (NCI), 48 h
UACC-62 = test system: UACC-62
MDA-MB-435 = test system: MDA-MB-435
RPMI-8226 = test system: RPMI-8226
SF-268 = test system: SF-268
NCI-H522 = test system: NCI-H522
SNB-19 = test system: SNB-19
NCI-H226 = test system: NCI-H226
M14 = test system: M14
COLO 205 = test system: COLO 205
786-0 = test system: 786-0
OVCAR-4 = test system: OVCAR-4
U-251 = test system: U-251
UO-31 = test system: UO-31
Malme-3M = test system: Malme-3M
A549 = test system: A549
HT-29 = test system: HT-29
RXF 393 = test system: RXF 393
SN12C = test system: SN12C
Hs-578T = test system: Hs-578T
SNB-75 = test system: SNB-75

Measured: GI50

CN1CCN(CC(=O)Nc2cccc3ccccc23)CC1
inactive: UACC-62 > 100 µM | MDA-MB-435 > 100 µM | RPMI-8226 > 100 µM | SF-268 > 100 µM | NCI-H522 > 100 µM | SNB-19 > 100 µM | NCI-H226 > 100 µM | M14 > 100 µM | COLO 205 > 100 µM | 786-0 > 100 µM | OVCAR-4 > 100 µM | U-251 > 100 µM | UO-31 > 100 µM | Malme-3M > 100 µM | A549 > 100 µM | HT-29 > 31.6 µM | RXF 393 > 100 µM | SN12C > 100 µM | Hs-578T > 100 µM

CC1(C)C=C(/C=C2/N(S(=O)(=O)C(F)(F)F)C(/C=C3/N(S(=O)(=O)C(F)(F)F)C(C)(C#N)CC3(C)C)=CC2(C)C)N=C1/C=C1/CC(C)(C)C(=O)N1 (centres undefined)
inactive: UACC-62 14.4 µM | MDA-MB-435 15 µM | SNB-75 61.5 µM | RPMI-8226 3.93 µM | SF-268 5.79 µM | NCI-H522 5.96 µM | SNB-19 52.5 µM | NCI-H226 22.7 µM | M14 29.3 µM | COLO 205 14.2 µM | 786-0 20.7 µM | OVCAR-4 7.38 µM | U-251 24.7 µM | UO-31 35.8 µM | A549 32.8 µM | HT-29 16.8 µM | RXF 393 18.6 µM | SN12C 22.3 µM | Hs-578T 16.2 µM

CCOC(=O)c1cc(C(O)P2(=O)N(CC(C)(C)C)[C@@H]3CCCC[C@H]3N2CC(C)(C)C)cn1C(=O)OC(C)(C)C (some centres undefined)
inactive: UACC-62 13.7 µM | MDA-MB-435 13.9 µM | RPMI-8226 12.7 µM | SF-268 15.8 µM | NCI-H522 13.8 µM | SNB-19 19.5 µM | NCI-H226 20.6 µM | M14 16.2 µM | COLO 205 17.3 µM | 786-0 15.6 µM | OVCAR-4 13.9 µM | U-251 15.9 µM | UO-31 15.3 µM | Malme-3M 13.7 µM | A549 15.7 µM | HT-29 13.8 µM | RXF 393 12 µM | SN12C 13.3 µM | Hs-578T 16.9 µM

CN(C)CCNc1ccc(NCCN(C)C)c2c1C(=O)c1ncsc1C2=O
inactive: UACC-62 11.4 µM | MDA-MB-435 13.6 µM | SNB-75 15.8 µM | RPMI-8226 10.6 µM | SF-268 15.4 µM | NCI-H522 11.6 µM | SNB-19 18.6 µM | NCI-H226 2.53 µM | M14 18.2 µM | COLO 205 12.4 µM | 786-0 9.1 µM | OVCAR-4 10.2 µM | U-251 14 µM | UO-31 15.2 µM | A549 11.9 µM | HT-29 6.46 µM | RXF 393 18.6 µM | SN12C 10.9 µM | Hs-578T 17.7 µM

COc1ccccc1-c1c(C#N)c(N)[nH]c(=S)c1C#N
inactive: UACC-62 55.1 µM | MDA-MB-435 35.6 µM | RPMI-8226 20.5 µM | SF-268 47.6 µM | NCI-H522 23.2 µM | SNB-19 > 100 µM | NCI-H226 31.6 µM | M14 78.2 µM | COLO 205 53.6 µM | 786-0 50.7 µM | OVCAR-4 57.8 µM | U-251 48.1 µM | UO-31 93.1 µM | Malme-3M 80.4 µM | A549 83 µM | HT-29 65.6 µM | RXF 393 34.4 µM | SN12C 25.4 µM | Hs-578T 30.9 µM

COc1c(O)cc2c(c1O)C(=O)C1=C(CCCC1)C2=O
inactive: UACC-62 20.3 µM | MDA-MB-435 26.9 µM | RPMI-8226 9.53 µM | SF-268 24.4 µM | NCI-H522 13 µM | SNB-19 31.5 µM | NCI-H226 30.5 µM | M14 34.8 µM | COLO 205 19.1 µM | 786-0 17.3 µM | OVCAR-4 21.6 µM | U-251 21 µM | UO-31 7.24 µM | Malme-3M 25.8 µM | A549 26.1 µM | HT-29 21.7 µM | RXF 393 14.9 µM | SN12C 20.6 µM | Hs-578T 21.8 µM
